Test results reported in paper PMC3483115 (The Journal of General Physiology, 2012).
Ends that are not written are not given here. MBP = maltose-binding protein (N-terminal fusion)

Legend:
Ca^2+–CaM [1] = target: T1, Ca^2+–CaM (Homo sapiens, UniProt P0DP23); test: CaM-agarose pulldown of MBP-fused TRPV1-CT35 peptides; format: binding; conditions: CaM-agarose pulldown (Fig. S2), pH 7.5, 1 mM CaCl2 or EGTA, 4°C, 1 h
TRPV1 K155A [2] = conditions: ref Lishko et al., 2007; cited from earlier work
TRPV1 K155A [3] = format: cell-based, rat; conditions: repeated 1 µM capsaicin, whole cell, extracellular Ca^2+
Ca^2+–CaM [4] = target: T1, Ca^2+–CaM; conditions: ref Lishko et al., 2007; cited from earlier work
TRPV1 = conditions: ref Liu et al., 2005, Lishko et al., 2007, Lukacs et al.; cited from earlier work
CaM = test: SEC of TRPV1-CT peptides mixed with CaM; format: binding; conditions: Superdex 75, in the presence of Ca^2+, data shown for TRPV1-CT44
Ca^2+–CaM [5] = target: T1, Ca^2+–CaM; test: SEC-based comparison of Ca^2+–CaM affinity, TRPV1-ARD vs. TRPV1-CT; format: binding; conditions: suggested by SEC; affinity could not be measured

For “L796P ({MBP}-EGVKRTLSFSLRSGRVSGRNWKNFALVPLPRDAST)”, the “Ca^2+–CaM binding of L796P MBP-TRPV1-CT35 (pulldown)” value (Ca^2+–CaM [1]) was “did not significantly disrupt binding of TRPV1-CT35 to Ca^2+–CaM”.

For `COc1cc(CNC(=O)CCCC/C=C/C(C)C)ccc1O` [capsaicin], the “capsaicin sensitivity of K155A TRPV1” value (TRPV1 K155A [2]) is given as “normal capsaicin sensitivity” and the “tachyphylaxis and activation kinetics, K155A TRPV1” value (TRPV1 K155A [3]) is given as “little tachyphylaxis and slower activation kinetics”.

In the case of “K155A: TRPV1 with mutation K155A in the TRPV1-ARD”, the “Ca^2+–CaM binding to TRPV1-ARD with mutation” value (Ca^2+–CaM [4]) is listed as “abolish Ca^2+–CaM binding to TRPV1-ARD”.

For “phosphatidylinositol-4,5-bisphosphate [PIP2]”, the “effect of PIP2 on TRPV1” value (TRPV1) is listed as “can also potentiate TRPV1”.

In the case of “TRPV1-CT35: 35-residue CaM-binding peptide from the TRPV1-CT (residues 767–801) (EGVKRTLSFSLRSGRVSGRNWKNFALVPLLRDAST; left off: MBP, N-terminal, cleaved)”, the “shift in elution volume with CaM” value (CaM) is reported as “undergo a large shift in elution volume when mixed with CaM in the presence of Ca^2+, confirming that a complex is formed”.

With “TRPV1-ARD: N-terminal ankyrin repeat domain of TRPV1 (rat or chicken)” the “affinity of TRPV1-ARD for Ca^2+–CaM relative to TRPV1-CT” value (Ca^2+–CaM [5]) was “the affinity is likely significantly lower than that of the TRPV1-CT”.
